Data as given in ChEMBL document CHEMBL1145250, “Discovery of 4-(dimethylamino)quinazolines as potent and selective antagonists for the melanin-concentrating hormone receptor 1” (Bioorg Med Chem Lett, 2005).
pIC50: −log10 of the molar value.

Tests used:
[1] = target: T1, Melanin-concentrating hormone receptor 1 (Homo sapiens, UniProt Q99705); experiment: Inhibitory activity against mutated constitutively activated human Melanin concentrating hormone receptor 1 (CA-MCH-R1) stably expressed in HEK293 cells using [125I](Phe13, Tyr19) MCH; type: cell-based
Target sequence in this assay (Q99705 whole entry, looked up): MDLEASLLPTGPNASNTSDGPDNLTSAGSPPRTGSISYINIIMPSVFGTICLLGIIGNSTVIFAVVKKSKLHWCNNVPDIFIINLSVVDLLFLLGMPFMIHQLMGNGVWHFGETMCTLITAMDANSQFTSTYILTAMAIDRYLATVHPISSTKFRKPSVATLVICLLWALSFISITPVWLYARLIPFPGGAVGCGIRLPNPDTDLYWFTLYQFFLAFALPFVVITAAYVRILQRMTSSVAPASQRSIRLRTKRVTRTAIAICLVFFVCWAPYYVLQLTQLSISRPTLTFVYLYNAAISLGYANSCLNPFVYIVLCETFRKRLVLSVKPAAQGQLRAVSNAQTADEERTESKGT

[2] = target: Alpha-2A adrenergic receptor (Homo sapiens, UniProt P08913); experiment: Inhibitory activity against constitutively activated human Alpha-2A adrenergic receptor transiently expressed in COS-1 cells using [3H]MK-912; type: cell-based
[3] = target: T2, Neuropeptide Y receptor type 5 (Homo sapiens, UniProt Q15761); experiment: Inhibitory activity against constitutively activated human Neuropeptide Y receptor Y5 transiently expressed in COS-1 cells using [125I]PYY; type: cell-based
T2 sequence (Q15761 whole entry): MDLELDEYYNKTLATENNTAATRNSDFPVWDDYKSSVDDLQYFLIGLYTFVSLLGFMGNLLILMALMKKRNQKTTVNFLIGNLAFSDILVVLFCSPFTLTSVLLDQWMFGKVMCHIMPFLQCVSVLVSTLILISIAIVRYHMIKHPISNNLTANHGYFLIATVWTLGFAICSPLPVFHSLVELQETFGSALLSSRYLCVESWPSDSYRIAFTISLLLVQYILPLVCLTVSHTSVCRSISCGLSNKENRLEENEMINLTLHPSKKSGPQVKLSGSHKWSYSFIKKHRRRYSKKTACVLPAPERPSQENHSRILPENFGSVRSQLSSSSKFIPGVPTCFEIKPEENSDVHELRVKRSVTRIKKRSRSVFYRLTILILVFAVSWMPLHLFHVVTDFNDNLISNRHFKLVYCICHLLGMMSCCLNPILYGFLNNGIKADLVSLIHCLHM

[4] = target: T1, Melanin-concentrating hormone receptor 1; experiment: Inhibitory activity against mutated constitutively activated human Melanin concentrating hormone receptor 1 (CA-MCH-R1) stably expressed in HEK293 cells using [125I](Phe13, Tyr19) MCH (n=8); type: cell-based
Target sequence in this assay (Q99705 whole entry, looked up): as the sequence (Q99705 whole entry, looked up) above

[5] = target: T1, Melanin-concentrating hormone receptor 1; experiment: Inhibitory activity against human wild type Melanin concentrating hormone receptor 1 (CA-MCH-R1) stably expressed in HEK293 cells using [125I](Phe13, Tyr19) MCH (n=3); type: cell-based
Target sequence in this assay (Q99705 whole entry): as the sequence (Q99705 whole entry, looked up) above

[6] = target: T1, Melanin-concentrating hormone receptor 1; experiment: Inhibitory activity against human constitutively activated Melanin concentrating hormone receptor 1 induced calcium flux stably expressed in HEK293 cells (n=6)
Target sequence in this assay (Q99705 whole entry): as the sequence (Q99705 whole entry, looked up) above

Chain of Alpha-2A adrenergic receptor (P08913 whole entry, looked up): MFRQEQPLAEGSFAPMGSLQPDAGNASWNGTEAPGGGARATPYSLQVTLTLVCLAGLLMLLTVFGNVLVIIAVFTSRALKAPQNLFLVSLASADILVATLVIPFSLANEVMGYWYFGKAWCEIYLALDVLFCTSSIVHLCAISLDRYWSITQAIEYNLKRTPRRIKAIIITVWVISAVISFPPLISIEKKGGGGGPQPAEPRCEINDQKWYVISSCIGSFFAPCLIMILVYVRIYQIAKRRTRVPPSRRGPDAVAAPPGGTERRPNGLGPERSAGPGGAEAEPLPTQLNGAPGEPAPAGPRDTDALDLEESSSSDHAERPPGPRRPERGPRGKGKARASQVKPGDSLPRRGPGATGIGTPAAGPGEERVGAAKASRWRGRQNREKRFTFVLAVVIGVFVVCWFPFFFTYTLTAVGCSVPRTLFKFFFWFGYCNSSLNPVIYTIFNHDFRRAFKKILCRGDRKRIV

Structure (SMILES)	pIC50 [1]	pIC50 [2]	pIC50 [3]	pIC50 [4]	pIC50 [5]	pIC50 [6]
CN(C)c1nc(NCC2CCN(S(=O)(=O)c3ccc(Br)cc3OC(F)(F)F)CC2)nc2ccccc12	5.22	8.25	5.52	–	–	–
CN(C)c1nc(NC2CCC(CNS(=O)(=O)c3ccc(Br)cc3OC(F)(F)F)CC2)nc2ccccc12 (stereo not given)	5.82	6.96	6.82	–	–	–
CN(C)c1nc(NCC2CCC(CNS(C)(=O)=O)CC2)nc2ccccc12 (stereo not given)	< 5.00	7.07	7.39	–	–	–
CN(C)c1nc(NC2CCN(S(=O)(=O)c3ccc(Br)cc3OC(F)(F)F)CC2)nc2ccccc12	6.60	6.77	5.05	–	–	–
Nc1nc(NCC2CCC(CNS(=O)(=O)c3ccc(Br)cc3OC(F)(F)F)CC2)nc2ccccc12 (trans isomer)	5.72	7.00	8.80	–	–	–
CN(C)c1nc(NCC2CCC(CNS(=O)(=O)c3ccc(Br)cc3OC(F)(F)F)CC2)nc2ccccc12 (trans isomer)	–	8.11	8.57	6.80	6.70	6.85
CCCCS(=O)(=O)NCC1CCC(CNc2nc(N(C)C)c3ccccc3n2)CC1 (trans isomer)	5.54	7.24	8.31	–	–	–
CN(C)c1nc(NC2CCC(NS(=O)(=O)c3ccc(Br)cc3OC(F)(F)F)CC2)nc2ccccc12 (trans isomer)	5.66	7.33	7.51	–	–	–
CN(C)c1nc(NCC2CCC(NS(=O)(=O)c3ccc(Br)cc3OC(F)(F)F)CC2)nc2ccccc12 (trans isomer)	6.09	7.68	8.60	–	–	–
CCCCCCCCS(=O)(=O)NCC1CCC(CNc2nc(N(C)C)c3ccccc3n2)CC1 (trans isomer)	5.17	–	–	–	–	–
O=S(=O)(NCC1CCC(CNc2ncc3ccccc3n2)CC1)c1ccc(Br)cc1OC(F)(F)F (trans isomer)	< 5.00	6.85	7.11	–	–	–
CC(C)S(=O)(=O)NCC1CCC(CNc2nc(N(C)C)c3ccccc3n2)CC1 (trans isomer)	< 5.00	–	–	–	–	–
Nc1nc(NC[C@H]2CC[C@H](CNS(=O)(=O)c3cccc4ccccc34)CC2)nc2ccccc12 [CGP-71683A]	5.46	–	–	–	–	–
